Data on 16 compounds can be found in patent US10961202B2, “Bis-benzimidazole compounds and methods of using the same” (THE SCRIPPS RESEARCH INSTITUTE, priority 2017, dated 2021).

The test system of the experiment is r(CUG)12-MBNL1 complex. As to the kind of experiment: Inhibition of the r(CUG)12-MBNL1 complex measured by TR-FRET. Particulars: 80 nM RNA, 60 nM MBNL1-His6. The class given is biochemical.

With `c1cc(-c2nc3cc(-c4ccc5[nH]c(-c6ccc(OCCN7CCOCC7)cc6)nc5c4)ccc3[nH]2)ccc1OCCN1CCOCC1` [Compound 351], the IC50 (Table M) was not below 200 µM.
The same measure, in the same setting: under `CN1CCCCC1COc1ccc(-c2nc3cc(-c4ccc5[nH]c(-c6ccc(OCC7CCCCN7C)cc6)nc5c4)ccc3[nH]2)cc1` (stereo not shown) [Compound 359] stands 65.5 µM; under `CC(=O)NCCN(C)CCNC(=O)c1ccc(-c2ccc3[nH]c(-c4ccc(OCCCN(C)C)cc4)nc3c2)cc1` [Compound 396], more than 200 µM; under `NCCCOc1ccc(-c2nc3cc(-c4ccc5[nH]c(-c6ccc(OCCCN)cc6)nc5c4)ccc3[nH]2)cc1` [Compound 378], 17.3 µM.
The same measure, in the same setting: then `CN(C)CC(CN(C)C)Oc1ccc2nc(-c3ccc(-c4nc5ccc(OC(CN(C)C)CN(C)C)cc5[nH]4)cc3)[nH]c2c1` [Compound 184], with more than 200 µM; and `CN(C)CCCOc1ccc2nc(-c3cc(F)c(-c4nc5ccc(OCCCN(C)C)cc5[nH]4)cc3F)[nH]c2c1` [Compound 296], with 8.4 µM.
`CC(=O)Nc1ccc2nc(-c3ccc(-c4nc5ccc(NC(C)=O)cc5[nH]4)cc3)[nH]c2c1` [Compound 6, N,N′-(2,2′-(1,4-phenylene)bis(1H-benzo[d]imidazole-5,2-diyl))diacetamide] displayed an IC50 (Table L) of 112 µM.
Consider `COCCOc1cc(-c2nc3cc(OCCCN(C)C)ccc3[nH]2)c(OC)cc1-c1nc2ccc(OCCCN(C)C)cc2[nH]1` [Compound 262, 3-((2-(4-(6-(3-(dimethylamino)propoxy)-1H-benzo[d]imidazol-2-yl)-2-methoxy-5-(2-methoxyethoxy)phenyl)-1H-benzo[d]imidazol-5-yl)oxy)-N,N-dimethylpropan-1-amine], for which, where the note is “Table M”, the IC50 is 55.5 µM.
`CN(C)CCNC(=O)c1ccc(-c2nc3ccc(-c4ccc5nc(-c6ccc(C(=O)Nc7cccc(-c8cn(CCCNCC(=O)N9CCCC9C(=O)N9CCC[C@H]9C(=O)N(CCCn9cc(-c%10cccc(NC(=O)c%11ccc(-c%12nc%13ccc(-c%14ccc%15nc(-c%16ccc(C(=O)NCCN(C)C)cc%16)[nH]c%15c%14)cc%13[nH]%12)cc%11)c%10)nn9)CC(N)=O)nn8)c7)cc6)[nH]c5c4)cc3[nH]2)cc1` (stereo partly shown) [Compound 446]: 7.1 µM corresponded to half-maximal inhibition (Table M) (IC50).
For the compound `N#Cc1ccc(-c2nc3cc(-c4ccc5[nH]c(-c6ccc(C#N)cc6)nc5c4)ccc3[nH]2)cc1` [Compound 100], for the setting “Table L”, the IC50 came out at 6.2 µM.
With `N=C(NO)c1ccc2nc(-c3ccc(-c4nc5ccc(C(=N)NO)cc5[nH]4)cc3)[nH]c2c1` [Compound 25, 2,2′-(1,4-phenylene)bis(N-hydroxy-1H-benzo[d]imidazole-6-carboximidamide)], the midpoint of inhibition (Table L), the IC50, lay at 144 µM.
For `CC(=O)N(CCCCN(C)C(=O)c1ccc(-c2nc3cc(-c4ccc5[nH]c(-c6ccc(C(=O)NCCN(C)C)cc6)nc5c4)ccc3[nH]2)cc1)CC(=O)N(C)[C@@H](C)C(=O)N(C)[C@@H](C)C(=O)N(C)[C@@H](C)C(=O)N(CCCCN(C)C(=O)c1ccc(-c2nc3cc(-c4ccc5[nH]c(-c6ccc(C(=O)NCCN(C)C)cc6)nc5c4)ccc3[nH]2)cc1)CC(N)=O` [Compound 418], half-maximal inhibition (Table M) (IC50) was put at 5.32 µM.
The compound `CN(C)CCNC(=O)c1ccc(-c2nc3cc(-c4ccc5[nH]c(-c6ccc(C(=O)O)cc6)nc5c4)ccc3[nH]2)cc1` [Compound 390, 4-(2′-(4-((2-(dimethylamino)ethyl)carbamoyl)phenyl)-3H,3′H-[5,5′-bibenzo[d]imidazol]-2-yl)benzoic acid] displayed an IC50 (Table M) of more than 200 µM.
Still for that read-out and setting: then `CN(C)CCCOc1ccc2nc(-c3ccc(-c4nc5ccc(OCCCN(C)C)cc5n4C)cc3)n(C)c2c1` [Compound 310], with more than 200 µM.
`CC(C)(C)OC(=O)NCCNC(=O)c1ccc2nc(-c3ccc(-c4nc5ccc(C(=O)NCCNC(=O)OC(C)(C)C)cc5[nH]4)cc3)[nH]c2c1` [Compound 50, di-tert-butyl(((2,2′-(1,4-phenylene)bis(1H-benzo[d]imidazole-6,6′-carbonyl))bis(azanediyl))bis(ethane-2,1-diyl))dicarbamate] yielded an IC50 (Table L) of more than 200 µM.
For the setting “Table M”, `Cc1cc(-c2nc3cc(-c4ccc5[nH]c(-c6ccc(OCCCN(C)C)c(C)c6)nc5c4)ccc3[nH]2)ccc1O` [Compound 365] gave a concentration for half-maximal inhibition (IC50) of 9.84 µM.
